Assay results: the supplement of paper PMC10307832

Legend:
Assay in all cases: relative viability (nuclei count vs DMSO), 5 days (fraction); higher = more cells survive
Vismodegib + Linsitinib = compound: CS(=O)(=O)c1ccc(C(=O)Nc2ccc(Cl)c(-c3ccccn3)c2)c(Cl)c1 [Vismodegib] + C[C@]1(O)C[C@@H](c2nc(-c3ccc4ccc(-c5ccccc5)nc4c3)c3c(N)nccn32)C1 [Linsitinib] (partner 1 µM)
Summary of the method: (§1)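 Nuclei were stained with Hoechst during a one-step fixation (final 0.05% Triton X-100, 1% formaldehyde, 1 ug/ml Hoechst) carried out 5 days after dosing, then counted on 4× images. The cells, lung cancer lines in 1536-well plates, had been dosed by pin tool the day after seeding with one drug alone or a fixed anchor-drug dose plus five library-drug doses (not always all listed) in √10 steps. Relative viability is the nuclei count in treated wells divided by that in vehicle wells, and each value is the median of duplicate plates.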

Vismodegib + Bortezomib = compound: CS(=O)(=O)c1ccc(C(=O)Nc2ccc(Cl)c(-c3ccccn3)c2)c(Cl)c1 [Vismodegib] + CC(C)C[C@H](NC(=O)[C@H](Cc1ccccc1)NC(=O)c1cnccn1)B(O)O [Bortezomib] (partner 0.002 µM)
Summary of the method: as §1

VE-821 + Lapatinib = compound: CS(=O)(=O)c1ccc(-c2cnc(N)c(C(=O)Nc3ccccc3)n2)cc1 [VE-821] + CS(=O)(=O)CCNCc1ccc(-c2ccc3ncnc(Nc4ccc(OCc5cccc(F)c5)c(Cl)c4)c3c2)o1 [Lapatinib] (partner 2 µM)
Summary of the method: as §1

VE-821 + Navitoclax = compound: CS(=O)(=O)c1ccc(-c2cnc(N)c(C(=O)Nc3ccccc3)n2)cc1 [VE-821] + CC1(C)CCC(c2ccc(Cl)cc2)=C(CN2CCN(c3ccc(C(=O)NS(=O)(=O)c4ccc(N[C@H](CCN5CCOCC5)CSc5ccccc5)c(S(=O)(=O)C(F)(F)F)c4)cc3)CC2)C1 [Navitoclax] (partner 0.5 µM)
Summary of the method: as §1

Cell Line | relative viability (Vismodegib + Linsitinib; first compound 0.08 µM) | relative viability (Vismodegib + Linsitinib; first compound 0.253 µM) | relative viability (Vismodegib + Linsitinib; first compound 0.8 µM) | relative viability (Vismodegib + Linsitinib; first compound 2.53 µM) | relative viability (Vismodegib + Linsitinib; first compound 8 µM) | relative viability (Vismodegib + Bortezomib; first compound 0.08 µM) | relative viability (Vismodegib + Bortezomib; first compound 0.253 µM) | relative viability (Vismodegib + Bortezomib; first compound 0.8 µM) | relative viability (Vismodegib + Bortezomib; first compound 2.53 µM) | relative viability (Vismodegib + Bortezomib; first compound 8 µM) | relative viability (VE-821 + Lapatinib; first compound 0.08 µM) | relative viability (VE-821 + Lapatinib; first compound 0.253 µM) | relative viability (VE-821 + Lapatinib; first compound 0.8 µM) | relative viability (VE-821 + Lapatinib; first compound 2.53 µM) | relative viability (VE-821 + Lapatinib; first compound 8 µM) | relative viability (VE-821 + Navitoclax; first compound 0.08 µM) | relative viability (VE-821 + Navitoclax; first compound 0.253 µM) | relative viability (VE-821 + Navitoclax; first compound 0.8 µM) | relative viability (VE-821 + Navitoclax; first compound 2.53 µM) | relative viability (VE-821 + Navitoclax; first compound 8 µM)
NCI-H1666 | 0.877 | 0.871 | 0.69 | 0.773 | 0.967 | 0.755 | 0.765 | 0.906 | 0.722 | 0.956 | 0.839 | 0.57 | 0.713 | 0.623 | 0.462 | 0.98 | 1.01 | 0.939 | 0.875 | 0.703
EPLC-272H | 1.24 | 1.18 | 0.986 | 1.04 | 1.1 | 0.988 | 0.783 | 0.864 | 1.14 | 0.723 | 1.07 | 0.976 | 1.12 | 1.24 | 0.848 | 1.52 | 1.13 | 1.33 | 1.12 | 1.35
NCI-H838 | 0.869 | 0.967 | 0.992 | 0.99 | 1.02 | 0.603 | 1.11 | 0.679 | 0.817 | 1.05 | 1.08 | 0.99 | 0.921 | 1.11 | 0.657 | 1.3 | 1.11 | 1.02 | 1.18 | 1.07
NCI-H2087 | 1 | 0.916 | 0.97 | 0.934 | 0.896 | 0.745 | 0.786 | 0.699 | 0.587 | 0.836 | 0.987 | 1.12 | 1.13 | 1.26 | 1.02 | 1.04 | 1.04 | 1.06 | 1.17 | 0.892
LC-2-ad | 0.824 | 0.794 | 0.849 | 0.82 | 0.828 | 1.06 | 0.987 | 0.981 | 0.947 | 0.871 | 1.06 | 1.01 | 1.08 | 1.07 | 0.963 | 0.587 | 0.413 | 0.566 | 0.622 | 0.291
NCI-H2405 | – | 0.859 | 0.806 | 0.776 | 1.07 | 0.833 | 0.977 | 0.978 | 0.92 | 0.995 | 1.15 | 0.976 | 1.03 | 1.31 | 1.05 | 0.873 | 0.888 | 0.762 | 0.942 | 0.751
HCC-366 | 0.628 | 0.636 | 0.575 | 0.563 | 0.703 | 1.06 | 1.03 | 1.06 | 0.934 | 1.06 | 1.1 | 1.03 | 0.883 | 0.406 | 0.064 | 1.34 | 1.02 | 0.925 | 1.02 | 0.0801
NCI-H3122 | 1.03 | 1.01 | 1.01 | 0.924 | 0.965 | 1.03 | 1.05 | 1.01 | 0.986 | 0.935 | 1.06 | 1 | 0.926 | 1.03 | 1 | 1.07 | 1.02 | 1.01 | 1.02 | 0.922
LU99A | 0.521 | 0.507 | 0.508 | 0.464 | 0.621 | 1.12 | 1.13 | 1.25 | 1.09 | 1.15 | 1.06 | 1.11 | 1.04 | 0.85 | 0.448 | 0.892 | 0.858 | 0.781 | 0.759 | 0.336
NCI-H1650 | – | – | – | – | – | 0.196 | 0.314 | 0.198 | 0.205 | 0.191 | 0.845 | 0.749 | 0.705 | 0.757 | 0.45 | 1.45 | 1.25 | 0.725 | 1.29 | 0.751
EMC-BAC-2 | 0.785 | 0.803 | 0.914 | 0.776 | 0.82 | 1.08 | 1.03 | 1.05 | 1.11 | 1.05 | 1.04 | 0.902 | 0.97 | 1.01 | 0.873 | 1.23 | 1.12 | 1.2 | 1.21 | 1.16
HCC-78 | 0.474 | 0.477 | 0.406 | 0.588 | 0.488 | – | 0.498 | 0.488 | 0.549 | 0.4 | 1.06 | 0.795 | 0.371 | 1.03 | 0.255 | 0.831 | 0.783 | 0.707 | 1.04 | 0.654
NCI-H1734 | 0.878 | 0.831 | 0.878 | 0.825 | 1.01 | 0.89 | 0.835 | 0.949 | 0.858 | 1.03 | 1.43 | 1.04 | 1.03 | 1.16 | 0.73 | 1.03 | 0.875 | 0.79 | 0.862 | 0.63
COR-L23 | 0.934 | 0.812 | 0.972 | 0.859 | 1.1 | 1 | 0.938 | 0.983 | 0.916 | 1.09 | 1.09 | 0.827 | 1.01 | 1.12 | 0.94 | 1.05 | 1.01 | 1.23 | 1.15 | 0.894
RERF-LC-KJ | 0.846 | 0.922 | 0.796 | 0.823 | 0.839 | 1.06 | 1.07 | 1.18 | 1.15 | 1.02 | 0.92 | 0.756 | 0.798 | 0.772 | 0.715 | 0.94 | 0.824 | 0.881 | 0.671 | 0.651
NCI-H1437 | 0.855 | 0.977 | 1.03 | 0.95 | 0.892 | 0.408 | 0.597 | 0.594 | 0.541 | 0.539 | 0.816 | 0.71 | 0.763 | 0.871 | 0.614 | 1.17 | 1.11 | 1.01 | 1.12 | 1.04
